Patent US9000020B2, “Linked dibenzimidazole antivirals” (Enanta Pharmaceuticals, Inc., priority 2009, dated 2015)

System: HCV 1b genotype replicon
Assay: HCV Replicon Assay - qRT-PCR (HCV RNA detection)
Format: cell-based
Conditions: Hepatitis C virus, from the qRT-PCR or luciferase assay (not specified which), read-out: Genotype-1b replicon EC50 Range
From the text: HCV replicon cell lines (kindly provided by R. Bartenschlager) isolated from colonies as described by Lohman et. al. (Lohman et al. (1999) Science 285: 110-113, expressly incorporated by reference in its entirety) and used for all experiments. The HCV replicon has the nucleic acid sequence set forth in EMBL Accession No.: AJ242651, the coding sequence of which is from nucleotides 1801 to 8406.
The coding sequence of the published HCV replicon was synthesized and subsequently assembled in a modified plasmid pBR322 (Promega, Madison, Wis.) using standard molecular biology techniques. One replicon cell line (“SGR 11-7”) stably expresses HCV replicon RNA which consists of (i) the HCV 5′UTR fused to the first 12 amino acids of the capsid protein, (ii) the neomycin phosphotransferase gene (neo), (iii) the IRES from encephalomyocarditis virus (EMCV), and (iv) HCV NS2 to NS5B genes and the HCV 3′UTR. Another replicon cell line (“Huh-luc/neo-ET”) described by Vrolijk et. al. (Vrolijk et. al. (2003) Journal of Virological Methods 110:201-209, expressly incorporated by reference in its entirety) stably expresses HCV replicon RNA which consists of (i) the HCV 5′UTR fused to the first 12 amino acids of the capsid protein, (ii) the firefly luciferase reporter gene, (iii) the ubiquitin gene, (iv) the neomycin phosphotransferase gene (neo), (v) the IRES from encephalomyocarditis virus (EMCV), and (vi) HCV NS3 to NS5B genes that harbor cell culture adaptive mutations (E1202G, T1280I, K1846T) and the HCV 3′UTR.
These cell lines were maintained at 37° C., 5% CO2, 100% relative humidity in DMEM (Cat #11965-084, Invitrogen), with 10% fetal calf serum (“FCS”, Invitrogen), 1% non-essential amino acids (Invitrogen), 1% of Glutamax (Invitrogen), 1% of 100× penicillin/streptomycin (Cat #15140-122, Invitrogen) and Geneticin (Cat #10131-027, Invitrogen) at 0.75 mg/ml or 0.5 mg/ml for 11-7 and Huh-luc/neo-ET cells, respectively.
EC50 values of single agent compounds and combinations were determined by HCV RNA detection using quantitative RT-PCR, according to the manufacturer's instructions, with a TaqMan® One-Step RT-PCR Master Mix Reagents Kit (Cat #AB 4309169, Applied Biosystems) on an ABI Model 7500 thermocycler. The TaqMan primers used for detecting and quantifying were obtained from Integrated DNA Technologies. HCV RNA was normalized to GAPDH RNA levels in drug-treated cells, which was detected and quantified using the Human GAPDH Endogenous Control Mix (Applied Biosystems, AB 4310884E). Total cellular RNA was purified from 96-well plates using the RNAqueous 96 kit (Ambion, Cat #AM1812). Chemical agent cytotoxicity was evaluated using an MTS assay according to the manufacturer's directions (Promega).
The compounds of the present invention can be effective against the HCV 1b genotype. It should also be understood that the compounds of the present invention can inhibit multiple genotypes of HCV. In one embodiment, compound of the present invention are active against the 1a, 1b, 2a, 2b, 3a, 4a, and 5a genotypes. […] EC50 ranges against HCV 1b are as follows: A>10 nM; B 1-10 nM; C<1 nM.

Compound	EC50 [nM]
CN(C)[C@@H](C(=O)N1CCC[C@H]1c1nc2cc(-c3ccc(-c4ccc5[nH]c([C@@H]6CCCN6C(=O)[C@@H](c6ccccc6)N(C)C)nc5c4)cc3)ccc2[nH]1)c1ccccc1 [Compound 2]	< 1
COC(=O)N[C@@H](C(=O)N1CCC[C@H]1c1nc2cc(-c3ccc(-c4ccc5[nH]c([C@@H]6CCCN6C(=O)[C@H](NC(=O)OC)c6ccccc6)nc5c4)cc3)ccc2[nH]1)c1ccccc1 [Compound 3]	< 1
CO[C@@H](C(=O)N1CCC[C@H]1c1nc2cc(-c3ccc(-c4ccc5[nH]c([C@@H]6CCCN6C(=O)[C@H](OC)c6ccccc6)nc5c4)cc3)ccc2[nH]1)c1ccccc1 [Compound 20]	< 1
O=C([C@@H]1CCCO1)N1CCC[C@H]1c1nc2cc(-c3ccc(-c4ccc5[nH]c([C@@H]6CCCN6C(=O)[C@@H]6CCCO6)nc5c4)cc3)ccc2[nH]1 [Compound 25]	> 10
O=C([C@H]1CCCO1)N1CCC[C@H]1c1nc2cc(-c3ccc(-c4ccc5[nH]c([C@@H]6CCCN6C(=O)[C@H]6CCCO6)nc5c4)cc3)ccc2[nH]1 [Compound 26]	> 10
COC(=O)N[C@H]1CC[C@H](C(=O)N2CCC[C@H]2c2nc3cc(-c4ccc(-c5ccc6[nH]c([C@@H]7CCCN7C(=O)[C@H]7CC[C@H](NC(=O)OC)CC7)nc6c5)cc4)ccc3[nH]2)CC1 [Compound 42]	> 10
O=C(c1ccncc1)N1CCC[C@H]1c1nc2cc(-c3ccc(-c4ccc5[nH]c([C@@H]6CCCN6C(=O)c6ccncc6)nc5c4)cc3)ccc2[nH]1 [Compound 52]	> 10
O=C(c1ccccn1)N1CCC[C@H]1c1nc2cc(-c3ccc(-c4ccc5[nH]c([C@@H]6CCCN6C(=O)c6ccccn6)nc5c4)cc3)ccc2[nH]1 [Compound 54]	> 10
COC(=O)N[C@@H](C)C(=O)N1CCC[C@H]1c1nc2cc(-c3ccc(-c4ccc5[nH]c([C@@H]6CCCN6C(=O)[C@H](C)NC(=O)OC)nc5c4)cc3)ccc2[nH]1 [Compound 62]	< 1
CC[C@H](NC(=O)OC)C(=O)N1CCC[C@H]1c1nc2cc(-c3ccc(-c4ccc5[nH]c([C@@H]6CCCN6C(=O)[C@H](CC)NC(=O)OC)nc5c4)cc3)ccc2[nH]1 [Compound 67]	< 1
COC(=O)N[C@H](C(=O)N1CCC[C@H]1c1nc2cc(-c3ccc(-c4ccc5[nH]c([C@@H]6CCCN6C(=O)[C@@H](NC(=O)OC)[C@@H](C)O)nc5c4)cc3)ccc2[nH]1)[C@@H](C)O [Compound 70]	< 1
COC(=O)N[C@H](C(=O)N1CCC[C@H]1c1nc2cc(-c3ccc(-c4ccc5[nH]c([C@@H]6CCCN6C(=O)[C@@H](NC(=O)OC)[C@@H](C)OC)nc5c4)cc3)ccc2[nH]1)[C@@H](C)OC [Compound 72]	< 1
COC(=O)N[C@H](C(=O)N1CCC[C@H]1c1nc2cc(-c3ccc(-c4ccc5[nH]c([C@@H]6CCCN6C(=O)[C@@H](NC(=O)OC)C6CC6)nc5c4)cc3)ccc2[nH]1)C1CC1 [Compound 78]	< 1
COC(=O)N[C@H](C(=O)N1CCC[C@H]1c1nc2cc(-c3ccc(-c4ccc5[nH]c([C@@H]6CCCN6C(=O)[C@@H](NC(=O)OC)C(C)C)nc5c4)cc3)ccc2[nH]1)C(C)C [Compound 83]	< 1
COC(=O)N[C@@H](Cn1cccn1)C(=O)N1CCC[C@H]1c1nc2cc(-c3ccc(-c4ccc5[nH]c([C@@H]6CCCN6C(=O)[C@H](Cn6cccn6)NC(=O)OC)nc5c4)cc3)ccc2[nH]1 [Compound 114]	< 1
COC(=O)N[C@@H](C(=O)N1CCC[C@H]1c1nc2cc(N3CCN(c4ccc5[nH]c([C@@H]6CCCN6C(=O)[C@H](NC(=O)OC)c6ccccc6)nc5c4)CC3)ccc2[nH]1)c1ccccc1 [Compound 354]	< 1
COC(=O)N[C@@H](C(=O)N1CCC[C@H]1c1nc2cc(N3CC(=O)N(c4ccc5[nH]c([C@@H]6CCCN6C(=O)[C@H](NC(=O)OC)c6ccccc6)nc5c4)CC3=O)ccc2[nH]1)c1ccccc1 [Compound 357]	> 10
CC(C)[C@H](NC(=O)OCc1ccccc1)C(=O)N1CCC[C@H]1c1nc2cc(-c3ccc(-c4ccc5[nH]c([C@@H]6CCCN6C(=O)[C@@H](NC(=O)OCc6ccccc6)C(C)C)nc5c4)cc3)ccc2[nH]1 [Compound 361]	> 10
COC(=O)N[C@H](C(=O)N1CCC[C@H]1c1nc2cc(-c3ccc(-c4ccc5[nH]c([C@@H]6CCCN6C(=O)[C@@H](NC(=O)OC)C(C)(C)C)nc5c4)cc3)ccc2[nH]1)C(C)(C)C [Compound 372]	< 1
